First: O=C(O)c1cccc(-c2ncn(-c3ccccc3Br)n2)c1 [Compound 30, 3-[1-(2-Bromo-phenyl)-1H-[1,2,4]triazol-3-yl]-benzoic acid]
Second: Cc1cccc(-n2cnc(-c3cccc(C(=O)O)c3)n2)c1 [Compound 39, 3-(1-m-Tolyl-1H-[1,2,4]triazol-3-yl)-benzoic acid]
The melting point of the first is higher: 245 to 247 °C for the first, 223 to 225 °C for the second.

Compared with O=C(O)c1cccc(-n2cc3c(n2)-c2ccccc2OC3)c1 [Compound 144, 3-(4H-Chromeno[4,3-c]pyrazol-2-yl)-benzoic acid], O=C(O)c1cccc(-n2cc3c(n2)Cc2ccccc2-3)c1 [Compound 146, 3-(8H-Indeno[2,1-c]pyrazol-2-yl)-benzoic acid] is higher in melting point: 227 to 228 °C for the first, 246 to 248 °C for the second.

First: CC(=O)c1ccc(-n2ccc(-c3cccc(C(=O)O)c3)n2)cc1 [Compound 255, 3-[1-(4-Acetyl-phenyl)-1H-pyrazol-3-yl]-benzoic acid]
Second: COc1ccc(-n2ccc(-c3cccc(C(=O)O)c3)n2)cc1 [Compound 76, 3-[1-(4-Methoxy-phenyl)-1H-pyrazol-3-yl]-benzoic acid]
The melting point of the first is higher: 215 to 216 °C for the first, 160 to 161 °C for the second.

Compared with O=C(O)c1cccc(-c2cnn(-c3ccc(Cl)c(Cl)c3)c2)c1 [Compound 232, 3-[1-(3,4-Dichloro-phenyl)-1H-pyrazol-4-yl]-benzoic acid], O=C(O)c1cccc(-n2cc(-c3ccncc3)cn2)c1 [Compound 115, 3-(4-Pyridin-4-yl-pyrazol-1-yl)-benzoic acid] is higher in melting point: 135 to 138 °C for the first, 300 to 302 °C for the second.

Compared with O=C(O)c1ccc(-n2cc(-c3ccc(Br)cc3F)nn2)cc1 [Compound 267, 4-[4-(4-Bromo-2-fluoro-phenyl)-[1,2,3]triazol-1-yl]-benzoic acid], O=C(O)c1ccc(-n2cc(-c3ccccc3Br)nn2)cc1 [Compound 270, 4-[4-(2-Bromo-phenyl)-[1,2,3]triazol-1-yl]-benzoic acid] is lower in melting point: 327 to 328 °C for the first, 261 to 262 °C for the second.

Compared with O=C(O)c1cccc(-n2cnc(-c3ccc(O)cc3)n2)c1 [Compound 9, 3-[3-(4-Hydroxy-phenyl)-[1,2,4]triazol-1-yl]-benzoic acid], O=C(O)c1cccc(-c2ncn(-c3ccc(N4CCC4=O)cc3)n2)c1 [Compound 44, 3-{1-[4-(2-Oxo-azetidin-1-yl)-phenyl]-1H-[1,2,4]triazol-3-yl}-benzoic acid] is lower in melting point: 307 to 311 °C for the first, 295 to 297 °C for the second.

First: COc1ccc(-c2cn(-c3ccc(C(=O)O)cc3)nn2)c(C)c1 [Compound 274, 4-[4-(4-Methoxy-2-methyl-phenyl)-[1,2,3]triazol-1-yl]-benzoic acid]
Second: O=C(O)c1ccc(-n2cc(-c3cccc(F)c3)nn2)cc1 [Compound 265, 4-[4-(3-Fluoro-phenyl)-[1,2,3]triazol-1-yl]-benzoic acid]
The melting point of the first is lower: 244 to 245 °C for the first, 327 to 328 °C for the second.

Compared with O=C(O)c1ccc(-c2ccn(-c3ccc4[nH]ccc4c3)n2)cc1 [Compound 257, 4-[1-(1H-Indol-5-yl)-1H-pyrazol-3-yl]-benzoic acid], O=C(O)c1ccc(-c2ccn(-c3ccc(OC(F)(F)F)cc3)n2)cc1 [Compound 218, 4-[1-(4-Trifluoromethoxy-phenyl)-1H-pyrazol-3-yl]-benzoic acid] is lower in melting point: 281 to 282 °C for the first, 214 to 215 °C for the second.

Compared with COc1cccc(-c2cnn(-c3ccc(C(=O)O)cc3)c2)c1 [Compound 109, 4-[4-(3-Methoxy-phenyl)-pyrazol-1-yl]-benzoic acid], O=C(O)c1ccc(-n2cc(-c3cccc(OC(F)F)c3)cn2)cc1 [Compound 214] is lower in melting point: 222 to 223 °C for the first, 220 to 222 °C for the second.

First: O=C(O)c1cccc(-n2ccc(-c3ccc(OC(F)(F)F)cc3)n2)c1 [Compound 95, 3-[3-(4-Trifluoromethoxy-phenyl)-pyrazol-1-yl]-benzoic acid]
Second: COc1cccc(-c2ccn(-c3cccc(C(=O)O)c3)n2)c1 [Compound 220, 3-[3-(3-Methoxy-phenyl)-pyrazol-1-yl]-benzoic acid]
The melting point of the first is higher: 191 to 194 °C for the first, 179 to 180 °C for the second.

First: COc1ccc(-n2cc(-c3cc(C(=O)O)ccc3[N+](=O)[O-])cn2)cc1 [Compound 55, 3-[1-(4-Methoxy-phenyl)-1H-pyrazol-4-yl]-4-nitro-benzoic acid]
Second: COc1ccc(-c2cnn(-c3cccc(C(=O)O)c3)c2)cc1 [Compound 47, 3-[4-(4-Methoxy-phenyl)-pyrazol-1-yl]-benzoic acid]
The melting point of the first is higher: 249 to 250 °C for the first, 238 to 239 °C for the second.

First: CC(C)c1ccc(-n2ccc(-c3ccc(C(=O)O)cc3)c2)cc1 [Compound 106, 4-[1-(4-Isopropyl-phenyl)-1H-pyrrol-3-yl]-benzoic acid]
Second: Cc1ccc(-n2ccc(-c3ccc(C(=O)O)cc3)c2)cc1F [Compound 244, 4-[1-(3-Fluoro-4-methyl-phenyl)-1H-pyrrol-3-yl]-benzoic acid]
The melting point of the first is lower: 240 to 243 °C for the first, 264 to 268 °C for the second.

First: O=C(O)c1cccc(-n2cc(-c3ccc4c(c3)OCO4)cn2)c1 [Compound 111, 3-(4-Benzo[1,3]dioxol-5-yl-pyrazol-1-yl)-benzoic acid]
Second: O=C(O)c1cccc(-c2ccn(-c3ccc4c(c3)OCO4)n2)c1 [Compound 87, 3-(1-Benzo[1,3]dioxol-5-yl-1H-pyrazol-3-yl)-benzoic acid]
The melting point of the first is higher: 264 to 265 °C for the first, 210 to 215 °C for the second.

Compared with O=C(O)c1ccc(-c2ccn(-c3ccccc3Cl)c2)cc1 [Compound 197, 4-[1-(2-Chloro-phenyl)-1H-pyrrol-3-yl]-benzoic acid], CCc1ccc(-n2ccc(-c3cccc(C(=O)O)c3)c2)cc1 [Compound 125, 3-[1-(4-Ethyl-phenyl)-1H-pyrrol-3-yl]-benzoic acid] is lower in melting point: 200 to 202 °C for the first, 190 to 192 °C for the second.

Compared with O=C(O)c1ccc(-c2ccn(-c3cccs3)n2)cc1 [Compound 259, 4-(1-Thiophen-2-yl-1H-pyrazol-3-yl)-benzoic acid], O=C(O)c1cccc(-c2ccn(-c3cccs3)n2)c1 [Compound 258, 3-(1-Thiophen-2-yl-1H-pyrazol-3-yl)-benzoic acid] is lower in melting point: 200 to 202 °C for the first, 198 to 199 °C for the second.

First: COc1ccc(-n2ccc(-c3cccc(C#N)c3)n2)cc1 [Compound 58, 3-[1-(4-Methoxy-phenyl)-1H-pyrazol-3-yl]-benzonitrile]
Second: O=C(O)c1cccc(-c2ccn(-c3ccccc3)n2)c1 [Compound 65, 3-(1-Phenyl-1H-pyrazol-3-yl)-benzoic acid]
The melting point of the first is lower: 110 to 112 °C for the first, 202 to 204 °C for the second.

Compared with O=C(O)c1ccc(-n2cc(-c3ccccc3F)cn2)cc1 [Compound 85, 4-[4-(2-Fluoro-phenyl)-pyrazol-1-yl]-benzoic acid], O=C(O)c1cccc(-n2cc(-c3ccccc3F)cn2)c1 [Compound 84, 3-[4-(2-Fluoro-phenyl)-pyrazol-1-yl]-benzoic acid] is lower in melting point: 260 to 261 °C for the first, 225 to 226 °C for the second.

Compared with O=C(O)c1cccc(-n2cc(-c3ccccn3)cn2)c1 [Compound 113, 3-(4-Pyridin-2-yl-pyrazol-1-yl)-benzoic acid], COc1cccc2c1Cc1cn(-c3cccc(C(=O)O)c3)nc1-2 [Compound 184, 3-(5-Methoxy-4H-indeno[1,2-c]pyrazol-2-yl)-benzoic acid] is higher in melting point: 243 to 245 °C for the first, 277 to 278 °C for the second.
